We go through twelve compounds from patent US12521393B2, “Cytotoxicity targeting chimeras for CCR2-expressing cells” (GLAXOSMITHKLINE INTELLECTUAL PROPERTY DEVELOPMENT LIMITED, priority 2021, dated 2026).

SMILES strings stand for the structures. Where a name gives a salt, the structure may show the parent alone.

The test system of the experiment is endogenous target monocytes in human PBMC. The experiment can be described thus: PBMC ex vivo monocyte depletion flow cytometry assay (Example 200). It counts as cell-based. The note with it: with anti-cotinine antibody (SEQ ID NO: 11/12), 18-24 hours, EC50 in molar, read-out: Ex Vivo Depletion Assay pEC50 (converted). In short, it runs like this: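 Monocyte depletion is reported as pEC50, averaged or given individually across runs, and read by flow cytometry staining CD45, CD14 and CD4 with a viability dye. Compounds, diluted four-fold over 11 points from 1 mM DMSO stocks, were combined with 30 μg/mL Fc-enhanced anti-cotinine antibody and human PBMC, then incubated 18-24 h at 37° C.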
For `CC(C)N(C)[C@@H]1CC[C@H](N2CC[C@H](Nc3ncnc4ccc(C(F)(F)F)cc34)C2=O)[C@H](NC(=O)CCCCCCCCC(=O)NCCCCCCCCCCNC(=O)[C@H]2CC(=O)N(C)[C@@H]2c2cccnc2)C1` [Example 165, N^1-((1R,2S,5R)-5-(isopropyl(methyl)amino)-2-((S)-2-oxo-3-((6-(trifluoromethyl)quinazolin-4-yl)amino)pyrrolidin-1-yl)cyclohexyl)-N^10-(10-((2S,3S)-1-methyl-5-oxo-2-(pyridin-3-yl)pyrrolidine-3-carboxamido)decyl)decanediamide], the EC50 was 0.631 nM.

Turning to `CC(C)N(C)[C@@H]1CC[C@H](N2CC[C@H](Nc3ncnc4ccc(C(F)(F)F)cc34)C2=O)[C@H](NC(=O)CCOCCC(=O)N2CCC3(CCC(C(=O)NCCNC(=O)[C@H]4CC(=O)N(C)[C@@H]4c4cccnc4)CC3)CC2)C1` [Example 167, 3-(3-(3-(((1R,2S,5R)-5-(Isopropyl(methyl)amino)-2-((S)-2-oxo-3-((6-(trifluoromethyl)quinazolin-4-yl)amino)pyrrolidin-1-yl)cyclohexyl)amino)-3-oxopropoxy)propanoyl)-N-(2-((2S,3S)-1-methyl-5-oxo-2-(pyridin-3-yl)pyrrolidine-3-carboxamido)ethyl)-3-azaspiro[5.5]undecane-9-carboxamide], the EC50 was 1.58 nM.

Take `CC(C)N(C)[C@@H]1CC[C@H](N2CC[C@H](Nc3ncnc4ccc(C(F)(F)F)cc34)C2=O)[C@H](NC(=O)[C@H]2CC[C@@H](NC(=O)CCOCCOCCNC(=O)CCCNC(=O)[C@H]3CC(=O)N(C)[C@@H]3c3cccnc3)CC2)C1` [Example 176, (2S,3S)-N-(4-((2-(2-(3-(((1S,4s)-4-(((1R,2S,5R)-5-(Isopropyl(methyl)amino)-2-((S)-2-oxo-3-((6-(trifluoromethyl)quinazolin-4-yl)amino)pyrrolidin-1-yl)cyclohexyl)carbamoyl)cyclohexyl)amino)-3-oxopropoxy)ethoxy)ethyl)amino)-4-oxobutyl)-1-methyl-5-oxo-2-(pyridin-3-yl)pyrrolidine-3-carboxamide]: the EC50 was 0.316 nM.

Take `CC(C)N(CCOCCOCCC(=O)N[C@H]1CC[C@@H](C(=O)N[C@@H]2C[C@H](N(C)C(C)C)CC[C@@H]2N2CC[C@H](Nc3ncnc4ccc(C(F)(F)F)cc34)C2=O)CC1)C(=O)CCCNC(=O)[C@H]1CC(=O)N(C)[C@@H]1c1cccnc1` [Example 177, (2S,3S)-N-(4-(Isopropyl(2-(2-(3-(((1S,4s)-4-(((1R,2S,5R)-5-(isopropyl(methyl)amino)-2-((S)-2-oxo-3-((6-(trifluoromethyl)quinazolin-4-yl)amino)pyrrolidin-1-yl)cyclohexyl)carbamoyl)cyclohexyl)amino)-3-oxopropoxy)ethoxy)ethyl)amino)-4-oxobutyl)-1-methyl-5-oxo-2-(pyridin-3-yl)pyrrolidine-3-carboxamide]: the EC50 was 0.251 nM.

With `CC(C)N(C)[C@@H]1CC[C@H](N2CC[C@H](Nc3ncnc4ccc(C(F)(F)F)cc34)C2=O)[C@H](NC(=O)CCCN2CCC3(CCC(C(=O)NCCNC(=O)[C@H]4CC(=O)N(C)[C@@H]4c4cccnc4)CC3)CC2)C1` [Example 183, 3-(4-(((1R,2S,5R)-5-(Isopropyl(methyl)amino)-2-((S)-2-oxo-3-((6-(trifluoromethyl)quinazolin-4-yl)amino)pyrrolidin-1-yl)cyclohexyl)amino)-4-oxobutyl)-N-(2-((2S,3S)-1-methyl-5-oxo-2-(pyridin-3-yl)pyrrolidine-3-carboxamido)ethyl)-3-azaspiro[5.5]undecane-9-carboxamide, 3 Formic acid salt], the EC50 is 0.251 nM.

Turning to `CC(C)N(C)[C@@H]1CC[C@H](N2CC[C@H](Nc3ncnc4ccc(C(F)(F)F)cc34)C2=O)[C@H](NC(=O)C2CCN(C3CCN(C4CCN(CCCCNC(=O)[C@H]5CC(=O)N(C)[C@@H]5c5cccnc5)CC4)CC3)CC2)C1` [Example 185, N-((1R,2S,5R)-5-(isopropyl(methyl)amino)-2-((S)-2-oxo-3-((6-(trifluoromethyl)quinazolin-4-yl)amino)pyrrolidin-1-yl)cyclohexyl)-1″-(4-((2S,3S)-1-methyl-5-oxo-2-(pyridin-3-yl)pyrrolidine-3-carboxamido)butyl)-[1,4′:1′,4″-terpiperidine]-4-carboxamide], the EC50 was 0.0631 nM.

As for `CC(C)N(C)[C@@H]1CC[C@H](N2CC[C@H](Nc3ncnc4ccc(C(F)(F)F)cc34)C2=O)[C@H](NC(=O)[C@H]2CC[C@H](C3CCN(CCOCCOCCNC(=O)[C@H]4CC(=O)N(C)[C@@H]4c4cccnc4)CC3)CC2)C1` [Example 189, (2S,3S)-N-(2-(2-(2-(4-((1R,4r)-4-(((1R,2S,5R)-5-(Isopropyl(methyl)amino)-2-((S)-2-oxo-3-((6-(trifluoromethyl)quinazolin-4-yl)amino)pyrrolidin-1-yl)cyclohexyl)carbamoyl)cyclohexyl)piperidin-1-yl)ethoxy)ethoxy)ethyl)-1-methyl-5-oxo-2-(pyridin-3-yl)pyrrolidine-3-carboxamide], the EC50 is 7.94 nM.

`CC(C)N(C)[C@@H]1CC[C@H](N2CC[C@H](Nc3ncnc4ccc(C(F)(F)F)cc34)C2=O)[C@H](NC(=O)[C@H]2CC[C@H](N3CCN(CCOCCOCCNC(=O)[C@H]4CC(=O)N(C)[C@@H]4c4cccnc4)CC3)CC2)C1` [Example 190, (2S,3S)-N-(2-(2-(2-(4-((1R,4r)-4-(((1R,2S,5R)-5-(isopropyl(methyl)amino)-2-((S)-2-oxo-3-((6-(trifluoromethyl)quinazolin-4-yl)amino)pyrrolidin-1-yl)cyclohexyl)carbamoyl)cyclohexyl)piperazin-1-yl)ethoxy)ethoxy)ethyl)-1-methyl-5-oxo-2-(pyridin-3-yl)pyrrolidine-3-carboxamide]: the EC50 was 3.16 nM.

Regarding `CC(C)N(C)[C@@H]1CC[C@H](N2CC[C@H](Nc3ncnc4ccc(C(F)(F)F)cc34)C2=O)[C@H](NC(=O)[C@H]2CC[C@@H](NC(=O)CCCOCCCOCCCNC(=O)[C@H]3CC(=O)N(C)[C@@H]3c3cccnc3)CC2)C1` [Example 193, (2S,3S)-N-(3-(3-(4-(((1S,4s)-4-(((1R,2S,5R)-5-(Isopropyl(methyl)amino)-2-((S)-2-oxo-3-((6-(trifluoromethyl)quinazolin-4-yl)amino)pyrrolidin-1-yl)cyclohexyl)carbamoyl)cyclohexyl)amino)-4-oxobutoxy)propoxy)propyl)-1-methyl-5-oxo-2-(pyridin-3-yl)pyrrolidine-3-carboxamide], the EC50 is 0.2 nM.

As to `CC(C)N(C)[C@@H]1CC[C@H](N2CC[C@H](Nc3ncnc4ccc(C(F)(F)F)cc34)C2=O)[C@H](NC(=O)CCCCCCCCNCCOCCOCCOCCOCCNC(=O)[C@H]2CC(=O)N(C)[C@@H]2c2cccnc2)C1` [Example 195, (2S,3S)-N-(24-(((1R,2S,5R)-5-(Isopropyl(methyl)amino)-2-((S)-2-oxo-3-((6-(trifluoromethyl)quinazolin-4-yl)amino)pyrrolidin-1-yl)cyclohexyl)amino)-24-oxo-3,6,9,12-tetraoxa-15-azatetracosyl)-1-methyl-5-oxo-2-(pyridin-3-yl)pyrrolidine-3-carboxamide, 3Trifluoroacetic acid salt], the EC50 is 0.316 nM.

As to `CC(C)N(C)[C@@H]1CC[C@H](N2CC[C@H](Nc3ncnc4ccc(C(F)(F)F)cc34)C2=O)[C@H](NC(=O)CCCCCCCCNCCCCCCCCCCNC(=O)[C@H]2CC(=O)N(C)[C@@H]2c2cccnc2)C1` [Example 196, (2S,3S)-N-(10-((9-(((1R,2S,5R)-5-(Isopropyl(methyl)amino)-2-((S)-2-oxo-3-((6-(trifluoromethyl)quinazolin-4-yl)amino)pyrrolidin-1-yl)cyclohexyl)amino)-9-oxononyl)amino)decyl)-1-methyl-5-oxo-2-(pyridin-3-yl)pyrrolidine-3-carboxamide, 3Formic acid salt.], the EC50 was 0.2 nM.

`CC(C)N(C)[C@@H]1CC[C@H](N2CC[C@H](Nc3ncnc4ccc(C(F)(F)F)cc34)C2=O)[C@H](NC(=O)[C@H]2CC[C@@H](NC(=O)CCOCCCOCCCNC(=O)[C@H]3CC(=O)N(C)[C@@H]3c3cccnc3)CC2)C1` [Example 197, (2S,3S)-N-(3-(3-(3-(((1S,4s)-4-(((1R,2S,5R)-5-(Isopropyl(methyl)amino)-2-((S)-2-oxo-3-((6-(trifluoromethyl)quinazolin-4-yl)amino)pyrrolidin-1-yl)cyclohexyl)carbamoyl)cyclohexyl)amino)-3-oxopropoxy)propoxy)propyl)-1-methyl-5-oxo-2-(pyridin-3-yl)pyrrolidine-3-carboxamide]: the EC50 was 1 nM.
